# According to patent US20250325534A1, “MICROBIOCIDAL TETRAHYDROISOQUINOLINE DERIVATIVES” (SYNGENTA CROP PROTECTION AG, priority 2021, published 2025):
# System: Mycosphaerella graminicola
# Assay: Mycosphaerella graminicola (Septoria tritici) / liquid culture (Septoria blotch)
# Format: cell-based
# Conditions: Zymoseptoria tritici, 96 h, photometrically 4-5 days after application, read-out: control of Mycosphaerella graminicola
# Procedure: Example B19: Mycosphaerella graminicola (Septoria tritici)/Liquid Culture (Septoria Blotch) Conidia of the fungus from cryogenic storage are directly mixed into a nutrient broth (potato dextrose broth). After placing a DMSO solution of test compound into a microtiter plate (96-well format), the nutrient broth containing the fungal spores is added. The test plates are incubated at 24° C. and the inhibition of growth is determined photometrically 4-5 days after application.
row,SMILES,inhibition of growth at 20 ppm
1,"Cc1c(C2CN(C(=O)c3cc(C4CCCC4)on3)Cc3ccccc32)cnn1C (stereo not drawn) [Compound P-235, (5-cyclopentylisoxazol-3-yl)-[4-(1,5-dimethylpyrazol-4-yl)-3,4-dihydro-1H-isoquinolin-2-yl]methanone]",≥ 80%
2,"Cn1cc(C2CN(C(=O)c3cc(C(C)(C)C)on3)Cc3ccccc32)cn1 (stereo not drawn) [Compound P-195, (5-tert-butylisoxazol-3-yl)-[4-(1-methylpyrazol-4-yl)-3,4-dihydro-1H-isoquinolin-2-yl]methanone]",≥ 80%
3,"CCC1c2ccccc2C(c2cnn(C)c2)CN1C(=O)c1cc(-c2ccccc2)on1 (stereo not drawn) [Compound P-37, [1-ethyl-4-(1-methylpyrazol-4-yl)-3,4-dihydro-1H-isoquinolin-2-yl]-(5-phenylisoxazol-3-yl)methanone]",≥ 80%
4,"COc1ccc2c(c1)C(c1cnn(C)c1)CN(C(=O)c1cc(-c3ccc(F)cc3F)on1)C2 (stereo not drawn) [Compound P-66, [5-(2,4-difluorophenyl)isoxazol-3-yl]-[6-methoxy-4-(1-methylpyrazol-4-yl)-3,4-dihydro-1H-isoquinolin-2-yl]methanone]",≥ 80%
5,"C[C@H]1c2ccc(O)cc2[C@@H](c2cnn(C)c2)CN1C(=O)c1cc(-c2ccc(F)cc2F)on1 (racemic) [Compound P-245, [5-(2,4-difluorophenyl)isoxazol-3-yl]-[rac-(1S,4S)-6-hydroxy-1-methyl-4-(1-methylpyrazol-4-yl)-3,4-dihydro-1H-isoquinolin-2-yl]methanone]",≥ 80%
6,"CC1c2ccc(OCC(F)(F)F)cc2C(C)(c2cnn(C)c2)CN1C(=O)c1cc(-c2ccccc2)on1 (stereo not drawn) [Compound P-27, [1,4-dimethyl-4-(1-methylpyrazol-4-yl)-6-(2,2,2-trifluoroethoxy)-1,3-dihydroisoquinolin-2-yl]-(5-phenylisoxazol-3-yl)methanone]",≥ 80%
7,"Cc1nn(C)c(C)c1C1c2ccccc2CN(C(=O)c2cc(-c3ccc(F)cc3F)on2)C1C (stereo not drawn) [Compound P-113, [5-(2,4-difluorophenyl)isoxazol-3-yl]-[3-methyl-4-(1,3,5-trimethylpyrazol-4-yl)-3,4-dihydro-1H-isoquinolin-2-yl]methanone]",≥ 80%
8,"Cn1cc(C2CN(C(=O)c3ncc(C4CC4)o3)Cc3ccccc32)cn1 (stereo not drawn) [Compound P-68, (5-cyclopropyloxazol-2-yl)-[4-(1-methylpyrazol-4-yl)-3,4-dihydro-1H-isoquinolin-2-yl]methanone]",≥ 80%
9,"Cn1cc(C2CN(C(=O)c3cc(-c4ccc(F)cc4F)on3)Cc3cc(-c4ccccc4)ccc32)cn1 (stereo not drawn) [Compound P-21, [5-(2,4-difluorophenyl)isoxazol-3-yl]-[4-(1-methylpyrazol-4-yl)-7-phenyl-3,4-dihydro-1H-isoquinolin-2-yl]methanone]",≥ 80%
10,"COC(=O)c1ccc2c(c1)C(c1cnn(C)c1)CN(C(=O)c1cc(-c3ccc(F)cc3F)on1)C2 (stereo not drawn) [Compound P-61, methyl 2-[5-(2,4-difluorophenyl)isoxazole-3-carbonyl]-4-(1-methylpyrazol-4-yl)-3,4-dihydro-1H-isoquinoline-6-carboxylate]",≥ 80%
11,"COc1cccc(-c2cc(C(=O)N3Cc4ccccc4C(c4cnn(C)c4)C3)no2)c1 (stereo not drawn) [Compound P-167, [5-(3-methoxyphenyl)isoxazol-3-yl]-[4-(1-methylpyrazol-4-yl)-3,4-dihydro-1H-isoquinolin-2-yl]methanone]",≥ 80%
12,"Cc1c([C@H]2CN(C(=O)c3cc(-c4ccc(F)cc4F)on3)[C@@H](C)c3ccccc32)cnn1C (racemic) [Compound P-242, [5-(2,4-difluorophenyl)isoxazol-3-yl]-[rac-(1S,4S)-4-(1,5-dimethylpyrazol-4-yl)-1-methyl-3,4-dihydro-1H-isoquinolin-2-yl]methanone]",≥ 80%
